Test results published in patent US20260085067A1, “CYCLIC SULFONAMIDE RIBONUCLEOTIDE REDUCTASE (RNR) INHIBITORS AND USES THEREOF” (Boundless Bio, Inc., priority 2022, published 2026).

Columns and labels:
RNR (RNR1:RNR2 1:1) = target: T1, RNR (RNR1:RNR2 1:1) (Homo sapiens, UniProt P23921); assay: RNR enzyme activity, rapid-fire mass spectrometry (RF/MS) assay; assay type: biochemical; details: [RNR] 50 nM, 1:1 RNR1:RNR2; CDP 5 μM; ATP 1 mM; 37° C., 45 min; compounds screened up to 50 μM
T1 sequence (P23921 1-792): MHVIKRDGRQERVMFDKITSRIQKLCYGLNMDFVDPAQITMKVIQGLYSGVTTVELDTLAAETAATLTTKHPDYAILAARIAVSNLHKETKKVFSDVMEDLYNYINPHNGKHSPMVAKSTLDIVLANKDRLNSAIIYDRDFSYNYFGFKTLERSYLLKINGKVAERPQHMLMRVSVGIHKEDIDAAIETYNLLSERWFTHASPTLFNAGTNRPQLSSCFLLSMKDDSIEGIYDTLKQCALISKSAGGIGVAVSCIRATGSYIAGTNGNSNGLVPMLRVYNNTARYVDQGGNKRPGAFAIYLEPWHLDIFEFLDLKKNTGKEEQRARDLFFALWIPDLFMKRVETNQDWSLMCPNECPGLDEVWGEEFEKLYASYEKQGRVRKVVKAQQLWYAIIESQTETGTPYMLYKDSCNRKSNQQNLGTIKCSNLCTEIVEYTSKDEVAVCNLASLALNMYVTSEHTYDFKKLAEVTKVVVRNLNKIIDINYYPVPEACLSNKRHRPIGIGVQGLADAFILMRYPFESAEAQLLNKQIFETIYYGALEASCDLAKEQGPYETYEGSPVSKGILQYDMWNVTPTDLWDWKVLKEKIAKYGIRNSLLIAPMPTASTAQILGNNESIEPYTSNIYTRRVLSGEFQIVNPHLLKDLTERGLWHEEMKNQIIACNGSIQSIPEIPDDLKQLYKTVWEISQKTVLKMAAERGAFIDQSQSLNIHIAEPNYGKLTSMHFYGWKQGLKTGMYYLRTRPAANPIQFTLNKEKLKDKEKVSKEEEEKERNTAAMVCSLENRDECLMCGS
Method: A rapid-fire mass spectrometry (RF/MS) assay was used to assess RNR enzyme activity using a 384 well plate and a robotic platform.
The plate layout included two validated reference compounds (Triapine (3-AP) and Hydroxyurea (HU)): • A dose response in duplicate; top concentration: 5 μM (3-AP) and 250 μM (HU), semi-log dilutions. • Spike wells in triplicate randomly spotted at four concentrations: • 250 μM, 100 μM, 30 μM and 2 μM for HU • 5 μM, 2 μM, 0.6 μM and 0.04 μM for 3-AP
First, the multidrop pipes were saturated for 30 minutes with enzymatic solution. Then 30 μL of Stop solution was distributed in column 24. Next, 15 μL of enzyme was distributed in column 1 to 24. Next, a pre-incubation step of 15 minutes at room temperature occurred, followed by distribution of 15 μL of substrate solution (column 1 to 24). Next, the plate was incubated for 45 minutes at 37° C. 30 μL of Stop solution was then distributed to columns 1 to 23.
The final parameters for the enzyme reactions were: • Incubation: 37° C., 45 min • [CDP]: 5 μM; [ATP]: 1 mM; [NADPH]: No • [RNR]final: 50 nM with 1:1 (RNR1:RNR2) ratio • Final volume: 30 μL • Stop solution: 6% HCOOH in water

[1] = tested on: pCHK1 (S345) in Colo320 DM cells; assay: Alphalisa assay, detection of pCHK1 (S345) in Colo320 DM cells; assay type: cell-based, human; details: Homo sapiens, COLO 320DM, compound overnight (approximately 16 hours)
Method: Colo320 DM cells (ATCC #CCL-220, derived from human colorectal adenocarcinoma, Dukes' type C) were seeded on a […], cell culture treated assay plate at a density of 50,000 cells/well in 200 μL of RPMI-1640 media supplemented with 10% Fetal Bovine Serum and incubated at 37° C. overnight. The following day, test compound dilutions were added directly to the plated cells by a Tecan digital dispenser to a final DMSO concentration of <0.5%. and incubated at 37° C. overnight (approximately 16 hours). The following day all cell culture media was removed from the cells. 75 μL of 1×AlphaLisa lysis buffer was added to each well and plates were agitated on a shaker for 30 minutes at room temperature. The lysis of cells and detection of pCHK1 (S345) were performed with reagents contained within the AlphaLisa Sure Fire assay kit (Perkin Elmer #ALSU-PCHK1-A) according to the manufacturer's instructions. 10 μL of each lysate was then transferred to a white, 384-well assay plate (Perkin Elmer #6008280). 5 μL of Acceptor mix was then added to each well of lysate in the white, 384-well assay plate and incubated in the dark at room temperature for 60 minutes. 5 μL of Donor mix was then added to each well of the white, 384-well assay plate in subdued light and incubated at room temperature for 60 minutes. Plates were read on an Alpha Technology-compatible plate reader using standard AlphaLisa settings.

| IC50 (RNR (RNR1:RNR2 1:1)) [nM] | IC50 [1] [nM] | SMILES |
| --- | --- | --- |
| < 20 | 1000 to 5000 | Cc1ccc(F)c([C@@H](C)[C@@H](c2n[nH]c(=O)o2)N2CCOc3c(ccc(Cl)c3[C@H](C)N(C)C)S2(=O)=O)c1C (single isomer, unassigned) [Example 53] |
| < 20 | 1000 to 5000 | Cc1ccc(F)c([C@@H](C)[C@@H](c2n[nH]c(=O)o2)N2CCOc3c(ccc(Cl)c3[C@@H](C)N(C)C)S2(=O)=O)c1C (single isomer, unassigned) [Example 54] |
| < 20 | ≤ 1000 | Cc1ccc(F)c([C@@H](C)[C@@H](c2n[nH]c(=O)o2)N2CN(C3CCCOC3)c3cc(Cl)ccc3S2(=O)=O)c1C (stereo in doubt) [Example 43, 5-((1S,2R)-1-(6-chloro-1,1-dioxido-4-((S)-tetrahydro-2H-pyran-3-yl)-3,4-dihydro-2H-benzo[e][1,2,4]thiadiazin-2-yl)-2-(6-fluoro-2,3-dimethylphenyl)propyl)-1,3,4-oxadiazol-2 (3H)-one] |
| < 20 | ≤ 1000 | Cc1ccc(F)c([C@@H](C)[C@@H](c2n[nH]c(=O)o2)N2CN(C3CCCOC3)c3cc(Cl)ccc3S2(=O)=O)c1C (stereo in doubt) [Example 44, 5-((1S,2R)-1-(6-chloro-1,1-dioxido-4-((R)-tetrahydro-2H-pyran-3-yl)-3,4-dihydro-2H-benzo[e][1,2,4]thiadiazin-2-yl)-2-(6-fluoro-2,3-dimethylphenyl)propyl)-1,3,4-oxadiazol-2 (3H)-one] |
| 100 to 1000 | 1000 to 5000 | Cc1ccc(F)c([C@@H](C)[C@@H](c2n[nH]c(=O)o2)N2CN(C(C)C)c3cc(Cl)ccc3S2(=O)=O)c1C [Example 4, 5-((1S,2R)-1-(6-chloro-4-isopropyl-1,1-dioxido-3,4-dihydro-2H-benzo[e][1,2,4]thiadiazin-2-yl)-2-(6-fluoro-2,3-dimethylphenyl)propyl)-1,3,4-oxadiazol-2 (3H)-one] |
| 20 to 100 | 1000 to 5000 | Cc1ccc(F)c([C@@H](C)[C@@H](c2n[nH]c(=O)o2)N2CN(C)c3cc(Cl)cnc3S2(=O)=O)c1C [Example 5, 5-((1S,2R)-1-(6-chloro-4-methyl-1,1-dioxido-3,4-dihydro-2H-pyrido[3,2-e][1,2,4]thiadiazin-2-yl)-2-(6-fluoro-2,3-dimethylphenyl)propyl)-1,3,4-oxadiazol-2 (3H)-one] |
| 20 to 100 | ≤ 1000 | Cc1ccc(F)c([C@@H](C)[C@@H](c2n[nH]c(=O)o2)N2CN(C3CC3)c3cc(Cl)ccc3S2(=O)=O)c1C [Example 6, 5-((1S,2R)-1-(6-chloro-4-cyclopropyl-1,1-dioxido-3,4-dihydro-2H-benzo[e][1,2,4]thiadiazin-2-yl)-2-(6-fluoro-2,3-dimethylphenyl)propyl)-1,3,4-oxadiazol-2 (3H)-one] |
| 20 to 100 | ≤ 1000 | Cc1ccc(F)c([C@@H](C)[C@@H](c2n[nH]c(=O)o2)N2COc3cc(Cl)ccc3S2(=O)=O)c1C [Example 7, 5-((1S,2R)-1-(6-chloro-1,1-dioxidobenzo[e][1,4,3]oxathiazin-2 (3H)-yl)-2-(6-fluoro-2,3-dimethylphenyl)propyl)-1,3,4-oxadiazol-2 (3H)-one] |
| 20 to 100 | ≤ 1000 | [2H]C([2H])([2H])N1CN([C@H](c2n[nH]c(=O)o2)[C@H](C)c2c(F)ccc(C)c2C)S(=O)(=O)c2ccc(Cl)cc21 [Example 9, 5-((1S,2R)-1-(6-chloro-4-(methyl-d3)-1,1-dioxido-3,4-dihydro-2H-benzo[e][1,2,4]thiadiazin-2-yl)-2-(6-fluoro-2,3-dimethylphenyl)propyl)-1,3,4-oxadiazol-2 (3H)-one] |
| < 20 | ≤ 1000 | CCCN1CN([C@H](c2n[nH]c(=O)o2)[C@H](C)c2c(F)ccc(C)c2C)S(=O)(=O)c2ccc(Cl)cc21 [Example 10, 5-((1S,2R)-1-(6-chloro-1,1-dioxido-4-propyl-3,4-dihydro-2H-benzo[e][1,2,4]thiadiazin-2-yl)-2-(6-fluoro-2,3-dimethylphenyl)propyl)-1,3,4-oxadiazol-2 (3H)-one] |
| 20 to 100 | 5000 to 10000 | Cc1cc2c(cc1Cl)N(C)CN([C@H](c1n[nH]c(=O)o1)[C@H](C)c1c(F)ccc(C)c1C)S2(=O)=O [Example 12, 5-((1S,2R)-1-(6-chloro-4,7-dimethyl-1,1-dioxido-3,4-dihydro-2H-benzo[e][1,2,4]thiadiazin-2-yl)-2-(6-fluoro-2,3-dimethylphenyl)propyl)-1,3,4-oxadiazol-2 (3H)-one] |
| 20 to 100 | 1000 to 5000 | Cc1ccc(F)c([C@@H](C)[C@@H](c2n[nH]c(=O)o2)N2CCN(C)c3cc(Cl)ccc3S2(=O)=O)c1C [Example 13, 5-((1S,2R)-1-(7-chloro-5-methyl-1,1-dioxido-4,5-dihydrobenzo[f][1,2,5]thiadiazepin-2 (3H)-yl)-2-(6-fluoro-2,3-dimethylphenyl)propyl)-1,3,4-oxadiazol-2 (3H)-one] |
| 20 to 100 | 1000 to 5000 | Cc1ccc(F)c([C@@H](C)[C@@H](c2n[nH]c(=O)o2)N2CC(=O)N(C)c3cc(Cl)ccc3S2(=O)=O)c1C [Example 14, 5-((1S,2R)-1-(7-chloro-5-methyl-1,1-dioxido-4-oxo-4,5-dihydrobenzo[f][1,2,5]thiadiazepin-2 (3H)-yl)-2-(6-fluoro-2,3-dimethylphenyl)propyl)-1,3,4-oxadiazol-2 (3H)-one] |
| 100 to 1000 | > 50000 | Cc1cc2c(cc1Cl)OCCN([C@H](c1n[nH]c(=O)o1)[C@H](C)c1c(F)ccc(C)c1C)S2(=O)=O [Example 15, 5-((1S,2R)-1-(7-chloro-8-methyl-1,1-dioxido-3,4-dihydro-2H-benzo[b][1,4,5]oxathiazepin-2-yl)-2-(6-fluoro-2,3-dimethylphenyl)propyl)-1,3,4-oxadiazol-2 (3H)-one] |
| 20 to 100 | 1000 to 5000 | Cc1ccc(F)c([C@@H](C)[C@@H](c2n[nH]c(=O)o2)N2CCOc3cc(Cl)cnc3S2(=O)=O)c1C [Example 16, 5-((1S,2R)-1-(7-chloro-1,1-dioxido-3,4-dihydro-2H-pyrido[3,2-b][1,4,5]oxathiazepin-2-yl)-2-(6-fluoro-2,3-dimethylphenyl)propyl)-1,3,4-oxadiazol-2 (3H)-one] |
| 100 to 1000 | 10000 to 50000 | COC(=O)c1cc(Cl)cc2c1S(=O)(=O)N([C@H](c1n[nH]c(=O)o1)[C@H](C)c1c(F)ccc(C)c1C)CCO2 [Example 18, methyl 7-chloro-2-((1S,2R)-2-(6-fluoro-2,3-dimethylphenyl)-1-(5-oxo-4,5-dihydro-1,3,4-oxadiazol-2-yl)propyl)-3,4-dihydro-2H-benzo[b][1,4,5]oxathiazepine-9-carboxylate 1,1-dioxide] |

| SMILES | IC50 (RNR (RNR1:RNR2 1:1)) [nM] | IC50 [1] [nM] |
| --- | --- | --- |
| Cc1ccc(F)c([C@@H](C)[C@@H](c2n[nH]c(=O)o2)N2CCOc3cc(Cl)ncc3S2(=O)=O)c1C [Example 17, 5-((1S, 2R)-1-(7-chloro-1,1-dioxido-3,4-dihydro-2H-pyrido[4,3-b][1,4,5]oxathiazepin-2-yl)-2-(6-fluoro-2,3-dimethylphenyl)propyl)-1,3,4-oxadiazol-2 (3H)-one] | 1000 to 10000 | > 50000 |
